Target: T1, Human Vanilloid Receptor 1 (Homo sapiens, UniProt Q8NER1)
T1 construct: expressed in transfected cells; host or cells: HEK 293
Test: Human VR1 functional assay using FLIPR, Protocol 1
Type: cell-based
Conditions: for inhibition at 9 µM: HEK293, 9 uM, inhibition of capsaicin (EC80)-induced calcium response, HEK 293 cells transfected with hVR1, read-out: h % I (9 uM); for IC50: decreased capsaicin (EC80)-induced calcium response, HEK 293 hVR1, read-out: h IC50; for Emax at 12.2 µM: HEK293, 12.2 uM, test compound-induced calcium response (agonist mode), HEK 293 hVR1, read-out: % maximal reponse to capsaicin (12.2 uM); for EC50: test compound-induced calcium response at the 5-minute time point, HEK 293 hVR1, read-out: h EC50
Protocol: The functional activity of the test compounds was determined by measuring changes in intracellular calcium concentration using FLIPR™ Calcium-3 Assay Kit and FLIPR™ technology.
HEK 293 cells transfected with Human Vanilloid Receptor 1 were maintained at 37° C. and 5% CO2 in: Dulbecco's Modification of Eagle's Medium (high glucose, L-glutamine, pyridoxine HCl, No sodium pyruvate), 10% FBS, 1× Penicillin-Streptomycin-Amphotericin B, 200 ug/mL zeocin. Approximately 24 hours prior to assay, 30,000 cells/well were plated onto a 384-well black clear bottom poly-D-lysine-coated assay plate with a well volume of 25 µL using Titertek Multidrop.
On the day of the assay, the medium was dumped and 50 μL 1× dye were loaded using Multidrop. Plates were incubated with dye at 37° C. for 30 minutes followed by 30 minutes incubation at room temperature. Then the plates were assayed by FLIPR™ with 2 additions: 12.5 μL test compound with 5 minutes data acquisition followed by 12.5 μL capsaicin at the EC80 concentration.
The EC50 values of test compounds were calculated based on a test compound-induced calcium response at the 5-minute time point. The IC50 values of compounds were calculated based on a decreased capsaicin-induced calcium response in the presence of test compound.

T1 sequence (Q8NER1 whole entry): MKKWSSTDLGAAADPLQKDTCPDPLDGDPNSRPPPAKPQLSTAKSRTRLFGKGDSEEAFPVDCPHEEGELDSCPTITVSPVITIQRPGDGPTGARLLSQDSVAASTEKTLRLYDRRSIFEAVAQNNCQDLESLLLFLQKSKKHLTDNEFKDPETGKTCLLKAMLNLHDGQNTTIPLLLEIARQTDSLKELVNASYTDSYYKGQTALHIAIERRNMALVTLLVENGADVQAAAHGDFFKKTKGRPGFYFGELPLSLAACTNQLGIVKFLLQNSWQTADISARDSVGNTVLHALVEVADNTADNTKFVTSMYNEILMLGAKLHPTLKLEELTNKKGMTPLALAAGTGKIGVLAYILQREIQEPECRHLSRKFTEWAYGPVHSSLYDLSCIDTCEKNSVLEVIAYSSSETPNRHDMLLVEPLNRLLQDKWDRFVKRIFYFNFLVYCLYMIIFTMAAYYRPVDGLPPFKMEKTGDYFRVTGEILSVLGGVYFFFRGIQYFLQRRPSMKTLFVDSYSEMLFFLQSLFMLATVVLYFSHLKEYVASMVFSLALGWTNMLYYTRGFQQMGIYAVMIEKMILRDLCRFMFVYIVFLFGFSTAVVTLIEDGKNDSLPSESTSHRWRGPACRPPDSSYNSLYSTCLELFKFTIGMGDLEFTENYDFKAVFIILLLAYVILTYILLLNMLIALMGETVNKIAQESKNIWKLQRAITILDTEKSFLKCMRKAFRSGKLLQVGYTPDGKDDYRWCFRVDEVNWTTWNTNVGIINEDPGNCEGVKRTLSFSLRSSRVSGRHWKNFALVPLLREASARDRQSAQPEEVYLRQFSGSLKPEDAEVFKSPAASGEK

| inhibition at 9 µM | IC50 | Emax at 12.2 µM | EC50 | Structure (SMILES) |
| --- | --- | --- | --- | --- |
| 7% |  |  |  | O=C(Nc1cnc2ccccc2c1)C1CCN(c2ccc(-c3ccccc3)cc2)CC1 [Example 1, 1-Biphenyl-4-yl-piperidine-4-carboxylic acid quinolin-3-ylamide] |
| 109% | 600 nM |  |  | O=C(Nc1cnc2ccccc2c1)C1CCN(c2cccc(C(F)(F)F)c2)CC1 [Example 2, 1-(3-Trifluoromethyl-phenyl)-piperidine-4-carboxylic acid quinolin-3-ylamide] |
| 44% | 15500 nM |  |  | O=C(Nc1cnc2ccccc2c1)C1CCN(c2cccc(-c3ccccc3)c2)CC1 [Example 3, 1-Biphenyl-3-yl-piperidine-4-carboxylic acid quinolin-3-ylamide] |
| 7.5% |  |  |  | O=C(Nc1cnc2ccccc2c1)C1CCN(c2ccc(C(F)(F)F)cc2)CC1 [Example 4, 1-(4-Trifluoromethyl-phenyl)-piperidine-4-carboxylic acid quinolin-3-ylamide] |
| 102% | 230 nM |  |  | Cc1cccc(N2CCC(C(=O)Nc3cnc4ccccc4c3)CC2)c1C [Example 5, 1-(2,3-Dimethyl-phenyl)-piperidine-4-carboxylic acid quinolin-3-ylamide] |
| 5% |  |  |  | CCn1cnc2c(NC(=O)C3CCN(c4cccc(C(F)(F)F)c4)CC3)ncnc21 [Example 7, 1-(3-Trifluoromethyl-phenyl)-piperidine-4-carboxylic acid (9-ethyl-9H-purin-6-yl)-amide] |
|  |  | 81% | 860 nM | O=C(Nc1ncnc2sccc12)C1CCN(c2cccc(C(F)(F)F)c2)CC1 [Example 10, 1-(3-Trifluoromethyl-phenyl)-piperidine-4-carboxylic acid thieno[2,3-d]pyrimidin-4-ylamide] |
| 72% | 2840 nM |  |  | O=C(Nc1cccc2cn[nH]c12)C1CCN(c2cccc(C(F)(F)F)c2)CC1 [Example 11, 1-(3-Trifluoromethyl-phenyl)-piperidine-4-carboxylic acid (1H-indazol-7-yl)-amide] |
|  |  | 74% | 860 nM | Cc1nsc2ccc(NC(=O)C3CCN(c4cccc(C(F)(F)F)c4)CC3)cc12 [Example 12, 1-(3-Trifluoromethyl-phenyl)-piperidine-4-carboxylic acid (3-methyl-benzo[d]isothiazol-5-yl)-amide] |
| 4% |  |  |  | CCOC(=O)c1[nH]c2ccccc2c1NC(=O)C1CCN(c2cccc(C(F)(F)F)c2)CC1 [Example 14, 3-{[1-(3-Trifluoromethyl-phenyl)-piperidine-4-carbonyl]-amino}-1H-indole-2-carboxylic acid ethyl ester] |
| 61% | 4570 nM |  |  | O=C(Nc1ccc2c(c1)OCO2)C1CCN(c2cccc(C(F)(F)F)c2)CC1 [Example 15, 1-(3-Trifluoromethyl-phenyl)-piperidine-4-carboxylic acid benzo[1,3]dioxol-5-ylamide] |
|  |  | 49% | 470 nM | O=C1Cc2cc(NC(=O)C3CCN(c4cccc(C(F)(F)F)c4)CC3)ccc2N1 [Example 17, 1-(3-Trifluoromethyl-phenyl)-piperidine-4-carboxylic acid (2-oxo-2,3-dihydro-1H-indol-5-yl)-amide] |
| 12.5% |  |  |  | O=C(Nc1ccc2c(c1)OCCO2)C1CCN(c2cccc(C(F)(F)F)c2)CC1 [Example 18, 1-(3-Trifluoromethyl-phenyl)-piperidine-4-carboxylic acid (2,3-dihydro-benzo[1,4]dioxin-6-yl)-amide] |
| 7.5% |  |  |  | Cc1nc2cc(NC(=O)C3CCN(c4cccc(C(F)(F)F)c4)CC3)ccc2s1 [Example 19, 1-(3-Trifluoromethyl-phenyl)-piperidine-4-carboxylic acid (2-methyl-benzothiazol-5-yl)-amide] |
| 2.5% |  |  |  | O=C(Nc1nsc2ccc([N+](=O)[O-])cc12)C1CCN(c2cccc(C(F)(F)F)c2)CC1 [Example 20, 1-(3-Trifluoromethyl-phenyl)-piperidine-4-carboxylic acid (5-nitro-benzo[d]isothiazol-3-yl)-amide] |
| 78% | 1070 nM |  |  | O=C(Nc1ccc2[nH]ccc2c1)C1CCN(c2cccc(C(F)(F)F)c2)CC1 [Example 22, 1-(3-Trifluoromethyl-phenyl)-piperidine-4-carboxylic acid (1H-indol-5-yl)-amide] |

| inhibition at 9 µM | IC50 | Emax at 12.2 µM | EC50 | Structure (SMILES) |
| --- | --- | --- | --- | --- |
| 19% |  |  |  | O=C(Nc1ccc2cc[nH]c2c1)C1CCN(c2cccc(C(F)(F)F)c2)CC1 [Example 23, 1-(3-Trifluoromethyl-phenyl)-piperidine-4-carboxylic acid (1H-indol-6-yl)-amide] |
|  |  | 68.5% | 1500 nM | Cn1ncc2cc(NC(=O)C3CCN(c4cccc(C(F)(F)F)c4)CC3)ccc21 [Example 24, 1-(3-Trifluoromethyl-phenyl)-piperidine-4-carboxylic acid (1-methyl-1H-indazol-5-yl)-amide] |
|  |  | 74% | 850 nM | COc1ccc(NC(=O)C2CCN(c3cccc(C(F)(F)F)c3)CC2)cn1 [Example 25, 1-(3-Trifluoromethyl-phenyl)-piperidine-4-carboxylic acid (6-methoxy-pyridin-3-yl)-amide] |
|  |  | 35.5% | 2550 nM | O=C(Nc1ccc2nc(S)sc2c1)C1CCN(c2cccc(C(F)(F)F)c2)CC1 [Example 26, 1-(3-Trifluoromethyl-phenyl)-piperidine-4-carboxylic acid (2-mercapto-benzothiazol-6-yl)-amide] |
| 13% |  |  |  | O=C(Nc1ccc(O)c2ncccc12)C1CCN(c2cccc(C(F)(F)F)c2)CC1 [Example 27, 1-(3-Trifluoromethyl-phenyl)-piperidine-4-carboxylic acid (8-hydroxy-quinolin-5-yl)-amide] |
| 77% | 2180 nM |  |  | O=C(Nc1ccc2c(c1)OCCCO2)C1CCN(c2cccc(C(F)(F)F)c2)CC1 [Example 28, 1-(3-Trifluoromethyl-phenyl)-piperidine-4-carboxylic acid (3,4-dihydro-2H-benzo[b][1,4]dioxepin-7-yl)-amide] |
| 13% |  |  |  | CC(=O)N1CCc2cc(NC(=O)C3CCN(c4cccc(C(F)(F)F)c4)CC3)ccc21 [Example 29, 1-(3-Trifluoromethyl-phenyl)-piperidine-4-carboxylic acid (1-acetyl-2,3-dihydro-1H-indol-5-yl)-amide] |
|  |  | 40% | 5310 nM | O=C(Nc1cccc2cc[nH]c12)C1CCN(c2cccc(C(F)(F)F)c2)CC1 [Example 30, 1-(3-Trifluoromethyl-phenyl)-piperidine-4-carboxylic acid (1H-indol-7-yl)-amide] |
| 16% |  |  |  | O=C(Nc1ccc2c(=O)[nH][nH]c(=O)c2c1)C1CCN(c2cccc(C(F)(F)F)c2)CC1 [Example 31, 1-(3-Trifluoromethyl-phenyl)-piperidine-4-carboxylic acid (1,4-dioxo-1,2,3,4-tetrahydro-phthalazin-6-yl)-amide] |
| 13% |  |  |  | O=C(Nc1ccc(Oc2ccccc2)nc1)C1CCN(c2cccc(C(F)(F)F)c2)CC1 [Example 32, 1-(3-Trifluoromethyl-phenyl)-piperidine-4-carboxylic acid (6-phenoxy-pyridin-3-yl)-amide] |
| 14% |  |  |  | CN(C)c1nc(NC(=O)C2CCN(c3cccc(C(F)(F)F)c3)CC2)ncc1-c1ccccc1 [Example 35, 1-(3-Trifluoromethyl-phenyl)-piperidine-4-carboxylic acid (4-dimethylamino-5-phenyl-pyrimidin-2-yl)-amide] |
| 14% |  |  |  | CCOC(=O)c1c(C)nn(-c2ccc(NC(=O)C3CCN(c4cccc(C(F)(F)F)c4)CC3)cn2)c1C [Example 36, 3,5-Dimethyl-1-(5-{[1-(3-trifluoromethyl-phenyl)-piperidine-4-carbonyl]-amino}-pyridin-2-yl)-1H-pyrazole-4-carboxylic acid ethyl ester] |
| 46.5% | 2640 nM |  |  | CC(=O)N1c2cc(NC(=O)C3CCN(c4cccc(C(F)(F)F)c4)CC3)ccc2CC1C (stereo not drawn) [Example 37, 1-(3-Trifluoromethyl-phenyl)-piperidine-4-carboxylic acid (1-acetyl-2-methyl-2,3-dihydro-1H-indol-6-yl)-amide] |
|  |  | 62.8% | 320 nM | O=C1Cc2ccc(NC(=O)C3CCN(c4cccc(C(F)(F)F)c4)CC3)cc2N1 [Example 38, 1-(3-Trifluoromethyl-phenyl)-piperidine-4-carboxylic acid (2-oxo-2,3-dihydro-1H-indol-6-yl)-amide] |
| 3.5% |  |  |  | O=C(Nc1ncnc2ccccc12)C1CCN(c2cccc(C(F)(F)F)c2)CC1 [Example 39, 1-(3-Trifluoromethyl-phenyl)-piperidine-4-carboxylic acid quinazolin-4-ylamide] |
| 11.5% |  |  |  | Cc1nc2ccc(NC(=O)C3CCN(c4cccc(C(F)(F)F)c4)CC3)nc2nc1C [Example 40, 1-(3-Trifluoromethyl-phenyl)-piperidine-4-carboxylic acid (2,3-dimethyl-pyrido[2,3-b]pyrazin-6-yl)-amide] |

Source: patent US20060116368A1, “4-Piperidinecarboxamide modulators of vanilloid VR1 receptor” (priority 2004, published 2006)
